In PubChem BioAssay AID248 (DTP/NCI, 2004):
“And” between values parts separate entries of the source, which are not always exact repeats. Identical values can stand only once. Toxic doses and inconclusive results are not listed. No stated cut-off is given here; in the data, active means T/C of 150% or more; inactive means T/C below 125%.

Tested on: L1210 leukemia ip in BDF1 mice, survival T/C
Experiment: NCI In Vivo Anticancer Drug Screen. Data for tumor model L1210 Leukemia (intraperitoneal) in B6D2F1 (BDF1) mice
Details: endpoint: mean survival time, higher = longer survival
Summary of the method: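 Survival endpoint. Drug-treated group vs vehicle group, expressed as T divided by C. Tumor passaged by transplantation.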

[1] = dose: 100.0 mg/kg/injection, schedule: Q01DX009 (ip), vehicle: Klucel (hydroxypropylcellulose) (HPC)
[2] = dose: 200.0 mg/kg/injection, schedule: Q01DX009 (ip), vehicle: Klucel (hydroxypropylcellulose) (HPC)
[3] = dose: 400.0 mg/kg/injection, schedule: Q01DX009 (ip), vehicle: Klucel (hydroxypropylcellulose) (HPC)
[4] = dose: 100.0 mg/kg/injection, schedule: Q04DX003 (ip), vehicle: Klucel (hydroxypropylcellulose) (HPC)
[5] = dose: 200.0 mg/kg/injection, schedule: Q04DX003 (ip), vehicle: Klucel (hydroxypropylcellulose) (HPC)
[6] = dose: 400.0 mg/kg/injection, schedule: Q04DX003 (ip), vehicle: Klucel (hydroxypropylcellulose) (HPC)
[7] = dose: 100.0 mg/kg/injection, schedule: Q04DX002 (ip), vehicle: saline with Tween-80
[8] = dose: 200.0 mg/kg/injection, schedule: Q04DX002 (ip), vehicle: saline with Tween-80
[9] = dose: 400.0 mg/kg/injection, schedule: Q04DX002 (ip), vehicle: saline with Tween-80
[10] = dose: 100.0 mg/kg/injection, schedule: Q01DX001 (ip), vehicle: saline
[11] = dose: 200.0 mg/kg/injection, schedule: Q01DX001 (ip), vehicle: saline
[12] = dose: 400.0 mg/kg/injection, schedule: Q01DX001 (ip), vehicle: saline

Measured: T/C

O=C(O)C(Cc1ccccc1)NS(=O)(=O)Cc1ccccc1 (centres undefined)
inactive: dose: 100.0 mg/kg/injection, schedule: Q01DX001 (ip), vehicle: other 100 % of control | dose: 100.0 mg/kg/injection, schedule: Q04DX003 (ip), vehicle: other 96 % of control | dose: 200.0 mg/kg/injection, schedule: Q01DX001 (ip), vehicle: other 102 % of control | dose: 200.0 mg/kg/injection, schedule: Q04DX003 (ip), vehicle: other 93 % of control | dose: 400.0 mg/kg/injection, schedule: Q01DX001 (ip), vehicle: other 100 % of control | dose: 400.0 mg/kg/injection, schedule: Q04DX003 (ip), vehicle: other 93 % of control

COc1cc([N+](=O)[O-])ccc1NC(=O)Nc1ccccc1F
inactive: [1] 98 % of control | [2] 93 % of control | [3] 89 % of control

CC12c3ccccc3C(C)(c3c1ccc1ccccc31)C1C(=O)OC(=O)C12 (centres undefined)
inactive: dose: 25.6 mg/kg/injection, schedule: Q04DX002 (ip), vehicle: Klucel (hydroxypropylcellulose) (HPC) 88 % of control | dose: 64.0 mg/kg/injection, schedule: Q04DX002 (ip), vehicle: Klucel (hydroxypropylcellulose) (HPC) 92 % of control | dose: 160.0 mg/kg/injection, schedule: Q04DX002 (ip), vehicle: Klucel (hydroxypropylcellulose) (HPC) 88 % of control | dose: 400.0 mg/kg/injection, schedule: Q04DX002 (ip), vehicle: Klucel (hydroxypropylcellulose) (HPC) 98 % of control

Cc1ccc(Oc2cccc3c[n+](C)ccc23)cc1
inactive: dose: 25.0 mg/kg/injection, schedule: Q04DX002 (ip), vehicle: DMSO 93 % of control | dose: 50.0 mg/kg/injection, schedule: Q04DX002 (ip), vehicle: DMSO 96 % of control | dose: 100.0 mg/kg/injection, schedule: Q04DX002 (ip), vehicle: DMSO 86 % of control

CC(=O)Nc1ccc2ccccc2c1Br
inactive: [1] 104 % of control | [4] 95 % of control | [2] 103 % of control | [5] 95 % of control | [3] 119 % of control | [6] 95 % of control

CCc1c(Nc2ccccc2Cl)nc(N)[nH]c1=O
inactive: dose: 100.0 mg/kg/injection, schedule: Q01DX Z (ip), vehicle: methylcellulose (MC) 95 % of control

Cc1c(-c2ccccc2)sc(/N=C/c2cc(Br)cc(Br)c2O)c1C#N
inactive: dose: 100.0 mg/kg/injection, schedule: Q01DX009 (ip), vehicle: saline with Tween-80 99 % of control and 111 % of control | [7] 112 % of control and 90 % of control | dose: 200.0 mg/kg/injection, schedule: Q01DX009 (ip), vehicle: saline with Tween-80 97 % of control and 86 % of control | [8] 93 % of control and 102 % of control | dose: 400.0 mg/kg/injection, schedule: Q01DX009 (ip), vehicle: saline with Tween-80 94 % of control | [9] 106 % of control and 107 % of control

Nc1nc(N)c(N=Nc2ccc(S(=O)(=O)Nc3ccccn3)cc2)c(=O)[nH]1
inactive: [10] 94 % of control | [11] 94 % of control | [12] 94 % of control

CCC1CCCCN1CCNc1ccc(CO)c2sc3ccccc3c(=O)c12 (centres undefined)
inactive: dose: 50.0 mg/kg/injection, schedule: Q01DX009 (ip), vehicle: Klucel (hydroxypropylcellulose) (HPC) 101 % of control | [1] 115 % of control | [2] 120 % of control

COc1cc(/C=C2\C(=O)C=C(C)CC2(C)C)ccc1O
inactive: dose: 25.0 mg/kg/injection, schedule: Q04DX003 (ip), vehicle: saline with Tween-80 92 % of control | dose: 50.0 mg/kg/injection, schedule: Q04DX003 (ip), vehicle: saline with Tween-80 89 % of control | dose: 100.0 mg/kg/injection, schedule: Q04DX003 (ip), vehicle: saline with Tween-80 89 % of control | dose: 200.0 mg/kg/injection, schedule: Q04DX003 (ip), vehicle: saline with Tween-80 90 % of control

CC(=O)OCC1OC(n2cnc3c(Cl)nc(Cl)nc32)CC1OC(C)=O (centres undefined)
inactive: [10] 101 % of control | [11] 101 % of control | [12] 101 % of control

CC1O/C(=N\O)C(C)O1 (centres undefined)
inactive: dose: 100.0 mg/kg/injection, schedule: Q01DX009 (ip), vehicle: carboxymethylcellulose (CMC) 95 % of control and 97 % of control | dose: 100.0 mg/kg/injection, schedule: Q04DX002 (ip), vehicle: carboxymethylcellulose (CMC) 106 % of control and 115 % of control | dose: 100.0 mg/kg/injection, schedule: Q04DX003 (ip), vehicle: carboxymethylcellulose (CMC) 93 % of control | dose: 200.0 mg/kg/injection, schedule: Q01DX009 (ip), vehicle: carboxymethylcellulose (CMC) 93 % of control and 95 % of control | dose: 200.0 mg/kg/injection, schedule: Q04DX002 (ip), vehicle: carboxymethylcellulose (CMC) 97 % of control and 102 % of control | dose: 200.0 mg/kg/injection, schedule: Q04DX003 (ip), vehicle: carboxymethylcellulose (CMC) 101 % of control | dose: 400.0 mg/kg/injection, schedule: Q01DX009 (ip), vehicle: carboxymethylcellulose (CMC) 93 % of control and 105 % of control | dose: 400.0 mg/kg/injection, schedule: Q04DX002 (ip), vehicle: carboxymethylcellulose (CMC) 95 % of control | dose: 400.0 mg/kg/injection, schedule: Q04DX003 (ip), vehicle: carboxymethylcellulose (CMC) 98 % of control

CC(=O)Nc1ccc(OC(=O)Nc2ccc(C)cc2[N+](=O)[O-])cc1
inactive: [4] 91 % of control | [5] 102 % of control | [6] 106 % of control

CN(CCC(=O)c1ccccc1)C(C)(C)C
inactive: dose: 100.0 mg/kg/injection, schedule: Q04DX003 (ip), vehicle: saline 100 % of control

O=[N+]([O-])c1ccc(/C=N\NC(=S)Nc2ccc3cn[nH]c3c2)cc1
inactive: dose: 50.0 mg/kg/injection, schedule: Q01DX001 (ip), vehicle: carboxymethylcellulose (CMC) 91 % of control | dose: 100.0 mg/kg/injection, schedule: Q01DX001 (ip), vehicle: carboxymethylcellulose (CMC) 97 % of control | dose: 200.0 mg/kg/injection, schedule: Q01DX001 (ip), vehicle: carboxymethylcellulose (CMC) 97 % of control | dose: 400.0 mg/kg/injection, schedule: Q01DX001 (ip), vehicle: carboxymethylcellulose (CMC) 105 % of control

CC(=O)N1CN(C(C)=O)CN(C(C)=O)C1
inactive: [1] 95 % of control | [7] 91 % of control | [2] 92 % of control | [8] 102 % of control | [3] 97 % of control | [9] 95 % of control

O=C(Nc1ccccc1)OCC#CCOC(=O)Nc1ccccc1
inactive: [1] 97 % of control | [2] 90 % of control | [3] 100 % of control

COc1c2ccccc2cc2ccccc12
inactive: dose: 50.0 mg/kg/injection, schedule: Q01DX009 (ip), vehicle: acetone 94 % of control | dose: 100.0 mg/kg/injection, schedule: Q01DX009 (ip), vehicle: acetone 92 % of control | dose: 200.0 mg/kg/injection, schedule: Q01DX009 (ip), vehicle: acetone 89 % of control

CCS(=O)(=O)C1C2C=CC(O2)C1S(=O)(=O)CC (centres undefined)
inactive: [4] 102 % of control | [5] 101 % of control | [6] 96 % of control
